{"source": "patent US20120230951A1", "about": "(priority 2011, published 2012)", "note": "Where a name gives a salt, the structure may show the parent alone.", "data": [{"test_system": "GT-1a pRLuc H771b 75 S/I subgenomic replicon cell line", "test": "HCV GT-1a replicon luciferase reporter assay", "assay_type": "cell-based", "settings": "Hepatitis C virus, GT1A, 72 h, read-out: GT-1a (IC50) (nM)", "description": "Determination of compounds HCV GT1b inhibitory replicon activity using the replicon luciferase reporter assay\nThe 2209-23 cell line was developed at Roche by stable transfection of the hepatoma cell line Huh-7 with a GT-1b Con1 subgenomic bicistronic replicon as previously described. Subgenomic replicon cell line was established in cured Huh7 cells, obtained from R. Bartenschlager (J. Virol. 2003 March; 77 (5):3007-19) The GT-1a H77 subgenomic replicon vector pRLuc H771b 75 S/I, was created by replacing the non structural region of the GT-1b Con1 subgenomic replicon by the one of the H77 strain, except for the first 75 amino acids of the NS3 protein that are from GT-1b Con1 strain. (J. Virol. 2001 77:5352-59) The GT-1a pRLuc H771b 75 S/I subgenomic replicon cell line was established in cured Huh7 cells, obtained from R. Bartenschlager. (J. Virol. 2003 March; 77 (5):3007-19)\nAll the subgenomic replicon cell lines were cultured in Dulbecco's Modified Eagle Medium (DMEM-Glutamax™-I; Invitrogen Cat #10569-010). The medium was supplemented with 10% Fetal Bovine Serum (Invitrogen Cat #10082-147), 1% penicillin/streptomycin (Mediatech Cat #30-002-CI) and 500 μg/ml of G418 (Mediatech Cat #30-234-CI). Cells were maintained at 37° C. in a humidified 5% CO2 atmosphere.\n2209-23 cells were plated at a cell density of 5000 cells per well in 96 well plates (Becton Dickinson, Cat #35 3296). Cells were plated in 90 μl of Dulbecco's Modified Eagle Medium (DMEM-Glutamax™-I), (Invitrogen Cat #10569-010) medium was supplemented with 5% Fetal Bovine Serum (Invitrogen Cat #10082-147), 1% penicillin/streptomycin (Mediatech Cat #30-002-CI). The pRluc H771b 75 S/I cells were plated in 96-well plate at 3000 cells/well in DMEM-Glutamax™-I containing 5% FBS and 1% penicillin/streptomycin in 90 μl final volume. Cells were allowed to equilibrate for 24 hours at 37° C. and 5% CO2 at which time compounds were added. Compounds (or medium as a control) were added 24 hours post-plating in 3 fold dilutions at a final DMSO concentration of 1% in 10 ul volume. Renilla luciferase reporter signal was read 72 hours after addition of compounds using the Renilla Luciferase Assay System (Promega, cat #E2820). EC50 values were defined as the compound concentration at which a 50% reduction in the levels of renilla luciferase reporter was observed as compared to control samples in the absence of compound and was determined by non-linear fitting of compound dose-response data. The EC50 was approximated if maximum percentage inhibition was less than 90% and more than 70%.", "units": {"IC50": "nM"}, "values": [{"compound": "COC(=O)N[C@H]1CCc2cccc3c2N(C1=O)[C@H](c1ncc(-c2cnc(-c4ccc(-c5cnc([C@@H]6CC(F)(F)CN6C(=O)[C@@H](NC(=O)OC)C(C)C)[nH]5)cc4)nc2)[nH]1)C3", "note": "[Compound I-16, ((2S,5S)-2-{5-[2-(4-{2-[(S)-1-((S)-2-Methoxycarbonylamino-3-methyl-butyryl)-4,4-difluoro-pyrrolidin-2-yl]-3H-imidazol-4-yl}-phenyl)-pyrimidin-5-yl]-1H-imidazol-2-yl}-4-oxo-1,2,4,5,6,7-hexahydro-azepino[3,2,1-hi]indol-5-yl)-carbamic acid methyl ester]", "IC50": 29.2}, {"compound": "COC(=O)N[C@H]1CCc2cccc3c2N(C1=O)[C@H](c1ncc(-c2cnc(-c4ccc5cc(-c6cnc([C@@H]7CCCN7C(=O)[C@@H](NC(=O)OC)C(C)C)[nH]6)ccc5c4)nc2)[nH]1)C3", "note": "[Compound I-17, ((2S,5S)-2-{5-[2-(6-{2-[(S)-1-((S)-2-Methoxycarbonylamino-3-methyl-butyryl)-pyrrolidin-2-yl]-3H-imidazol-4-yl}-naphthalen-2-yl)-pyrimidin-5-yl]-1H-imidazol-2-yl}-4-oxo-1,2,4,5,6,7-hexahydro-azepino[3,2,1-hi]indol-5-yl)-carbamic acid methyl ester]", "IC50": 3.2}, {"compound": "COC(=O)N[C@H]1CCc2cccc3c2N(C1=O)[C@H](c1ncc(-c2cnc4cc(-c5ccc(-c6cnc([C@@H]7CCCN7C(=O)[C@@H](NC(=O)OC)C(C)C)[nH]6)cc5)ccc4c2)[nH]1)C3", "note": "[Compound I-18, ((2S,5S)-2-{5-[7-(4-{2-[(S)-1-((S)-2-Methoxycarbonylamino-3-methyl-butyryl)-pyrrolidin-2-yl]-3H-imidazol-4-yl}-phenyl)-quinolin-3-yl]-1H-imidazol-2-yl}-4-oxo-1,2,4,5,6,7-hexahydro-azepino[3,2,1-hi]indol-5-yl)-carbamic acid methyl ester trifluoacetic acid salt]", "IC50": 21.6}, {"compound": "COC(=O)N[C@H]1CCc2cccc3c2N(C1=O)[C@H](c1ncc(-c2cnc4cc(-c5ccc(-c6[nH]c([C@@H]7CCCN7C(=O)[C@@H](NC(=O)OC)C(C)C)nc6Cl)cc5)ccc4c2)[nH]1)C3", "note": "[Compound I-20, ((2S,5S)-2-{5-[7-(4-{5-Chloro-2-[(S)-1-((S)-2-methoxycarbonylamino-3-methyl-butyryl)-pyrrolidin-2-yl]-3H-imidazol-4-yl}-phenyl)-quinolin-3-yl]-1H-imidazol-2-yl}-4-oxo-1,2,4,5,6,7-hexahydro-azepino[3,2,1-hi]indol-5-yl)-carbamic acid methyl ester trifluroacetic acid, trifluoroacetic acid salt]", "IC50": 12}, {"compound": "COC(=O)N[C@H]1CCc2cccc3c2N(C1=O)[C@H](c1ncc(-c2ccc(-c4ccc5cc(-c6cnc([C@@H]7CCCN7C(=O)[C@@H](NC(=O)OC)C(C)C)[nH]6)ccc5n4)cc2)[nH]1)C3", "note": "[Compound I-21, ((2S,5S)-2-{4-[4-(6-{2-[(S)-1-((S)-2-Methoxycarbonylamino-3-methyl-butyryl)-pyrrolidin-2-yl]-1H-imidazol-4-yl}-quinolin-2-yl)-phenyl]-1H-imidazol-2-yl}-4-oxo-1,2,4,5,6,7-hexahydro-azepino[3,2,1-hi]indol-5-yl)-carbamic acid methyl ester trifluroacetic acid, trifluoroacetic acid salt]", "IC50": 0.395}, {"compound": "COC(=O)N[C@H]1CCc2cccc3c2N(C1=O)[C@H](c1ncc(-c2ccc4nc(-c5ccc(-c6cnc([C@@H]7CCCN7C(=O)[C@@H](NC(=O)OC)C(C)C)[nH]6)cc5)ccc4c2)[nH]1)C3", "note": "[Compound I-22, ((2S,5S)-2-{5-[2-(4-{2-[(S)-1-((S)-2-Methoxycarbonylamino-3-methyl-butyryl)-pyrrolidin-2-yl]-1H-imidazol-4-yl}-phenyl)-quinolin-6-yl]-1H-imidazol-2-yl}-4-oxo-1,2,4,5,6,7-hexahydro-azepino[3,2,1-hi]indol-5-yl)-carbamic acid methyl ester trifluroacetic acid, trifluoroacetic acid salt]", "IC50": 1.45}, {"compound": "COC(=O)N[C@H]1CCc2cccc3c2N(C1=O)[C@H](c1ncc(-c2ccc(-c4ccc5cc(-c6cnc([C@@H]7CCCN7C(=O)[C@@H](NC(=O)OC)C(C)C)[nH]6)ccc5c4)nc2)[nH]1)C3", "note": "[Compound I-23, ((2S,5S)-2-{4-[6-(6-{2-[(S)-1-((S)-2-Methoxycarbonylamino-3-methyl-butyryl)pyrrolidin-2-yl]-3H-imidazol-4-yl}-naphthalen-2-yl)-pyridin-3-yl]-1Himidazol-2-yl}-4-oxo-1,2,4,5,6,7-hexahydro-azepino[3,2,1-hi]indol-5-yl)-carbamic acid methyl ester di-trifluoroacetic acid salt]", "IC50": 0.767}, {"compound": "COC(=O)N[C@H]1CCc2cccc3c2N(C1=O)[C@H](c1ncc(-c2ccc4cc(-c5ccc(-c6cnc([C@@H]7CCCN7C(=O)[C@@H](NC(=O)OC)C(C)C)[nH]6)cn5)ccc4c2)[nH]1)C3", "note": "[Compound I-24, ((2S,5S)-2-{4-[6-(5-{2-[(S)-1-((S)-2-Methoxycarbonylamino-3-methyl-butyryl)-pyrrolidin-2-yl]-3H-imidazol-4-yl}-pyridin-2-yl)-naphthalen-2-yl]-1H-imidazol-2-yl}-4-oxo-1,2,4,5,6,7-hexahydro-azepino[3,2,1-hi]indol-5-yl)-carbamic acid methyl ester di-trifluoroacetic acid salt]", "IC50": 1.16}, {"compound": "COC(=O)N[C@H]1CCc2cc(C(N)=O)cc3c2N(C1=O)[C@H](c1ncc(-c2ccc(-c4ccc(-c5cnc([C@H]6CCCN6C(=O)[C@H](NC(=O)OC)C(C)C)[nH]5)cc4)cc2)[nH]1)C3", "note": "[Compound I-27, {(2S,5S)-9-Carbamoyl-2-[5-(4′-{2-[(R)-1-((R)-2-methoxycarbonylamino-3-methyl-butyryl)-pyrrolidin-2-yl]-3H-imidazol-4-yl}-biphenyl-4-yl)-1H-imidazol-2-yl]-4-oxo-1,2,4,5,6,7-hexahydro-azepino[3,2,1-hi]indol-5-yl}-carbamic acid methyl ester]", "IC50": 5.08}, {"compound": "COC(=O)N[C@H]1CCc2cccc3c2N(C1=O)[C@H](c1ncc(-c2ccc(-c4ccc(-c5[nH]c([C@@H]6CCCN6C(=O)[C@@H](NC(=O)OC)C(C)C)nc5Cl)cc4)cc2)[nH]1)C3", "note": "[Compound I-30, {(2S,5S)-2-[5-(4′-{5-Chloro-2-[(S)-1-((S)-2-methoxycarbonylamino-3-methyl-butyryl)-pyrrolidin-2-yl]-3H-imidazol-4yl}-biphenyl-4-yl)-1H-imidazol-2-yl]-4-oxo-1,2,4,5,6,7-hexahydro-azepino[3,2,1-hi]indol-5-yl}-carbamic acid methyl ester]", "IC50": 1}, {"compound": "COC(=O)N[C@H]1CCc2cccc3c2N(C1=O)[C@H](c1ncc(-c2ccc(-c4ccc(-c5[nH]c([C@@H]6CC(F)(F)CN6C(=O)[C@@H](NC(=O)OC)C(C)C)nc5Cl)cc4)cc2)[nH]1)C3", "note": "[Compound I-32, {(2S,5S)-2-[5-(4′-{5-Chloro-2-[(S)-4,4-difluoro-1-((S)-2-methoxycarbonylamino-3-methyl-butyryl)-pyrrolidin-2-yl]-3H-imidazol-4yl}-biphenyl-4-yl)-1H-imidazol-2-yl]-4-oxo-1,2,4,5,6,7-hexahydro-azepino[3,2,1-hi]indol-5-yl}-carbamic acid methyl ester]", "IC50": 5.78}, {"compound": "COC(=O)N[C@H]1CCc2cccc3c2N(C1=O)[C@H](c1ncc(-c2ccc(-c4ccc(-c5cnc([C@@H]6C[C@H](O)CN6C(=O)[C@@H](NC(=O)OC)C(C)C)[nH]5)cc4)cc2)[nH]1)C3", "note": "[Compound I-33, {(2S,5S)-2-[5-(4′-{2-[(2S,4S)-4-Hydroxy-1-((S)-2-methoxycarbonylamino-3-methyl-butyryl)-pyrrolidin-2-yl]-3H-imidazol-4-yl}-biphenyl-4-yl)-1H-imidazol-2-yl]-4-oxo-1,2,4,5,6,7-hexahydro-azepino[3,2,1-hi]indol-5-yl}-carbamic acid methyl ester]", "IC50": 46.1}, {"compound": "COC(=O)N[C@H]1CCc2cccc3c2N(C1=O)[C@H](c1ncc(-c2ccc(-c4ccc(-c5cnc([C@@H]6CCCN6C(=O)[C@@H](NC(=O)OC)C(C)C)[nH]5)cn4)cc2)[nH]1)C3", "note": "[Compound I-34, ((2S,5S)-2-{5-[4-(5-{2-[(S)-1-((S)-2-Methoxycarbonylamino-3-methyl-butyryl)-pyrrolidin-2-yl]-3H-imidazol-4-yl}-pyridin-2-yl)-phenyl]-1H-imidazol-2-yl}-4-oxo-1,2,4,5,6,7-hexahydro-azepino[3,2,1-hi]indol-5-yl)-carbamic acid methyl ester]", "IC50": 86.7}]}]}
